For the assay, the target named is T1, human PAH with the R408W mutation (Homo sapiens, UniProt P00439, R408W).
T1 construct: expressed in transfected cells
T1 sequence (P00439 1-452 R408W): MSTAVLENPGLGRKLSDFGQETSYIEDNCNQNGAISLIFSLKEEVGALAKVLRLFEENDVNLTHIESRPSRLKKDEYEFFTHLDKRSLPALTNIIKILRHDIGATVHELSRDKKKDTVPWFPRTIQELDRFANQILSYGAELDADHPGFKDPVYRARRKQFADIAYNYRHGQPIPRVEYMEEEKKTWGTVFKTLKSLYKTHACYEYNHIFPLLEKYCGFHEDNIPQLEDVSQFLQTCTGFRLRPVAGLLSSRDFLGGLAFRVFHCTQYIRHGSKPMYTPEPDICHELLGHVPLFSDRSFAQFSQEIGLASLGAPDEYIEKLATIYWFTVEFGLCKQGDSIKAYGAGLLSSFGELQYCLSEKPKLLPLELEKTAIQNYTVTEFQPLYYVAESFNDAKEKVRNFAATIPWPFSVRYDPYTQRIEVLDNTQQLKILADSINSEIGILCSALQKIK
In words: Cell Based Phenylalanine Flux Assay. The note with it: A375 cells expressing human R408W PAH; 24 hrs compound incubation; 13C-Tyrosine by LC-MS; average where tested multiple times; read-out: AC50.

Each structure is given as a SMILES string.

What is called AC50 is the midpoint of the concentration-response curve, whichever way the signal moves. On to `CC(C)(c1nc(C(F)F)c(C(=O)N2CCc3[nH]cnc3[C@H]2c2nc3c(F)cccc3s2)o1)S(C)(=O)=O` [Example 2005], for which the AC50 was less than 500 nM. In the case of `CC(C)(c1nc(C(F)F)c(C(=O)N2CCc3[nH]cnc3[C@@H]2c2nc3c(F)cccc3s2)o1)S(C)(=O)=O` [Example 2006, (R)-(4-(difluoromethyl)-2-(2-(methylsulfonyl)propan-2-yl)oxazol-5-yl)(4-(4-fluorobenzo[d]thiazol-2-yl)-6,7-dihydro-1H-imidazo[4,5-c]pyridin-5(4H)-yl)methanone] it was 1000 to 5000 nM.

In the case of `CC(F)(F)c1ncoc1C(=O)N1CCc2[nH]cnc2[C@H]1c1nc2c(F)cccc2s1` [Example 2007], the concentration at half-maximal activity (AC50) was less than 500 nM.

For `CC(F)(F)c1ncoc1C(=O)N1CCc2[nH]cnc2[C@@H]1c1nc2c(F)cccc2s1` [Example 2008, (R)-(4-(1,1-difluoroethyl)oxazol-5-yl)(4-(4-fluorobenzo[d]thiazol-2-yl)-6,7-dihydro-1H-imidazo[4,5-c]pyridin-5(4H)-yl)methanone], the concentration at half-maximal activity (AC50) fell in the range of 1000 to 5000 nM.

Take `Cc1cccc2sc([C@@H]3c4nc[nH]c4CCN3C(=O)c3ocnc3C(F)(F)F)nc12` [Example 2009, (S)-(4-(4-methylbenzo[d]thiazol-2-yl)-6,7-dihydro-1H-imidazo[4,5-c]pyridin-5(4H)-yl)(4-(trifluoromethyl)oxazol-5-yl)methanone]: the concentration at half-maximal activity (AC50) was less than 500 nM.

Consider `Cc1cccc2sc([C@H]3c4nc[nH]c4CCN3C(=O)c3ocnc3C(F)(F)F)nc12` [Example 2010, (R)-(4-(4-methylbenzo[d]thiazol-2-yl)-6,7-dihydro-1H-imidazo[4,5-c]pyridin-5(4H)-yl)(4-(trifluoromethyl)oxazol-5-yl)methanone], for which the AC50 fell in the range of 500 to 1000 nM. As to `Cc1cccc2sc([C@@H]3c4nc[nH]c4CCN3C(=O)c3ocnc3C(F)F)nc12` [Example 2011], the AC50 is less than 500 nM. In the case of `Cc1cccc2sc([C@H]3c4nc[nH]c4CCN3C(=O)c3ocnc3C(F)F)nc12` [Example 2012, (R)-(4-(difluoromethyl)oxazol-5-yl)(4-(4-methylbenzo[d]thiazol-2-yl)-6,7-dihydro-1H-imidazo[4,5-c]pyridin-5(4H)-yl)methanone] it was 1000 to 5000 nM; in that of `Cc1cccc2sc([C@@H]3c4nc[nH]c4CCN3C(=O)c3cnco3)nc12` [Example 2013, (S)-(4-(4-methylbenzo[d]thiazol-2-yl)-6,7-dihydro-1H-imidazo[4,5-c]pyridin-5(4H)-yl)(oxazol-5-yl)methanone], 500 to 1000 nM; in that of `Cc1cccc2sc([C@H]3c4nc[nH]c4CCN3C(=O)c3cnco3)nc12` [Example 2014, (R)-(4-(4-methylbenzo[d]thiazol-2-yl)-6,7-dihydro-1H-imidazo[4,5-c]pyridin-5(4H)-yl)(oxazol-5-yl)methanone], more than 5000 nM. `Cc1cccc2sc([C@@H]3c4nc[nH]c4CCN3C(=O)c3ncnn3C)nc12` [Example 2015]: the concentration at half-maximal activity (AC50) lay within 500 to 1000 nM. To `Cc1cccc2sc([C@H]3c4nc[nH]c4CCN3C(=O)c3ncnn3C)nc12` [Example 2016, (R)-(1-methyl-1H-1,2,4-triazol-5-yl)(4-(4-methylbenzo[d]thiazol-2-yl)-6,7-dihydro-1H-imidazo[4,5-c]pyridin-5(4H)-yl)methanone] belongs more than 5000 nM; to `O=C(c1cnn(CC(F)F)c1Cl)N1CCc2[nH]cnc2[C@H]1c1nc2c(F)cccc2s1` [Example 2017, (S)-(5-chloro-1-(2,2-difluoroethyl)-1H-pyrazol-4-yl)(4-(4-fluorobenzo[d]thiazol-2-yl)-6,7-dihydro-1H-imidazo[4,5-c]pyridin-5(4H)-yl)methanone], less than 500 nM. To `O=C(c1cnn(CC(F)F)c1Cl)N1CCc2[nH]cnc2[C@@H]1c1nc2c(F)cccc2s1` [Example 2018, (R)-(5-chloro-1-(2,2-difluoroethyl)-1H-pyrazol-4-yl)(4-(4-fluorobenzo[d]thiazol-2-yl)-6,7-dihydro-1H-imidazo[4,5-c]pyridin-5(4H)-yl)methanone] belongs 1000 to 5000 nM; to `Cc1cccc2sc([C@@H]3c4nc[nH]c4CCN3C(=O)c3ocnc3C#N)nc12` [Example 2019, (S)-5-(4-(4-methylbenzo[d]thiazol-2-yl)-4,5,6,7-tetrahydro-1H-imidazo[4,5-c]pyridine-5-carbonyl)oxazole-4-carbonitrile], less than 500 nM.

Consider `Cc1cccc2sc([C@H]3c4nc[nH]c4CCN3C(=O)c3ocnc3C#N)nc12` [Example 2020, (R)-5-(4-(4-methylbenzo[d]thiazol-2-yl)-4,5,6,7-tetrahydro-1H-imidazo[4,5-c]pyridine-5-carbonyl)oxazole-4-carbonitrile], for which the concentration at half-maximal activity (AC50) was more than 5000 nM. To `Cc1cccc2sc([C@@H]3c4nc[nH]c4CCN3C(=O)c3ccnn3C)nc12` [Example 2021] belongs 500 to 1000 nM. To `CN1CCN(c2nc(C(F)F)c(C(=O)N3CCc4[nH]cnc4[C@H]3c3nc4c(F)cccc4s3)o2)CC1` [Example 2023, (S)-(4-(difluoromethyl)-2-(4-methylpiperazin-1-yl)oxazol-5-yl)(4-(4-fluorobenzo[d]thiazol-2-yl)-6,7-dihydro-1H-imidazo[4,5-c]pyridin-5(4H)-yl)methanone] belongs less than 500 nM.

On to `CN1CCN(c2nc(C(F)F)c(C(=O)N3CCc4[nH]cnc4[C@@H]3c3nc4c(F)cccc4s3)o2)CC1` [Example 2024, (R)-(4-(difluoromethyl)-2-(4-methylpiperazin-1-yl)oxazol-5-yl)(4-(4-fluorobenzo[d]thiazol-2-yl)-6,7-dihydro-1H-imidazo[4,5-c]pyridin-5(4H)-yl)methanone], for which the AC50 was in the range of 1000 to 5000 nM. To `O=C(c1oc(N2CCOCC2)nc1C(F)F)N1CCc2[nH]cnc2[C@H]1c1nc2c(F)cccc2s1` [Example 2025, (S)-(4-(difluoromethyl)-2-morpholinooxazol-5-yl)(4-(4-fluorobenzo[d]thiazol-2-yl)-6,7-dihydro-1H-imidazo[4,5-c]pyridin-5(4H)-yl)methanone] belongs less than 500 nM; to `O=C(c1oc(N2CCOCC2)nc1C(F)F)N1CCc2[nH]cnc2[C@@H]1c1nc2c(F)cccc2s1` [Example 2026, (R)-(4-(difluoromethyl)-2-morpholinooxazol-5-yl)(4-(4-fluorobenzo[d]thiazol-2-yl)-6,7-dihydro-1H-imidazo[4,5-c]pyridin-5(4H)-yl)methanone], 1000 to 5000 nM.

For the compound `CC(C)(C#N)c1nc(C(F)F)c(C(=O)N2CCc3[nH]cnc3[C@H]2c2nc3c(F)cccc3s2)o1` [Example 2027], the half-maximal activity concentration (AC50) is less than 500 nM.

Consider `CC(C)(C#N)c1nc(C(F)F)c(C(=O)N2CCc3[nH]cnc3[C@@H]2c2nc3c(F)cccc3s2)o1` [Example 2028, (R)-2-(4-(difluoromethyl)-5-(4-(4-fluorobenzo[d]thiazol-2-yl)-4,5,6,7-tetrahydro-1H-imidazo[4,5-c]pyridine-5-carbonyl)oxazol-2-yl)-2-methylpropanenitrile], for which the AC50 was less than 500 nM. To `Cc1cccc2sc([C@@H]3c4nc[nH]c4CCN3C(=O)c3cnn(C)c3C(F)F)nc12` [Example 2029, (S)-(5-(difluoromethyl)-1-methyl-1H-pyrazol-4-yl)(4-(4-methylbenzo[d]thiazol-2-yl)-6,7-dihydro-1H-imidazo[4,5-c]pyridin-5(4H)-yl)methanone] belongs 500 to 1000 nM; to `CN1CCN(c2nc(Br)c(C(=O)N3CCc4[nH]cnc4[C@H]3c3nc4c(F)cccc4s3)o2)CC1` [Example 2031, (S)-(4-bromo-2-(4-methylpiperazin-1-yl)oxazol-5-yl)(4-(4-fluorobenzo[d]thiazol-2-yl)-6,7-dihydro-1H-imidazo[4,5-c]pyridin-5(4H)-yl)methanone], less than 500 nM; to `CN1CCN(c2nc(Br)c(C(=O)N3CCc4[nH]cnc4[C@@H]3c3nc4c(F)cccc4s3)o2)CC1` [Example 2032, (R)-(4-bromo-2-(4-methylpiperazin-1-yl)oxazol-5-yl)(4-(4-fluorobenzo[d]thiazol-2-yl)-6,7-dihydro-1H-imidazo[4,5-c]pyridin-5(4H)-yl)methanone], 1000 to 5000 nM. In the case of `O=C(c1oc(N2CCOCC2)nc1Br)N1CCc2[nH]cnc2[C@H]1c1nc2c(F)cccc2s1` [Example 2033] it was less than 500 nM.

Regarding `O=C(c1oc(N2CCOCC2)nc1Br)N1CCc2[nH]cnc2[C@@H]1c1nc2c(F)cccc2s1` [Example 2034, (R)-(4-bromo-2-morpholinooxazol-5-yl)(4-(4-fluorobenzo[d]thiazol-2-yl)-6,7-dihydro-1H-imidazo[4,5-c]pyridin-5(4H)-yl)methanone], the concentration at half-maximal activity (AC50) was 1000 to 5000 nM. To `O=C(c1cn[nH]c1Cl)N1CCc2[nH]cnc2[C@@H]1c1nc2ccccc2s1` [Example 2035, (R)-(4-(benzo[d]thiazol-2-yl)-6,7-dihydro-1H-imidazo[4,5-c]pyridin-5(4H)-yl)(5-chloro-1H-pyrazol-4-yl)methanone] belongs 1000 to 5000 nM.

On to `O=C(c1cn[nH]c1Cl)N1CCc2[nH]cnc2[C@H]1c1nc2ccccc2s1` [Example 2036], for which the concentration at half-maximal activity (AC50) was less than 500 nM. In the case of `CC(C)n1ncnc1C(=O)N1CCc2[nH]cnc2[C@H]1c1nc2ccccc2s1` [Example 2037] it was less than 500 nM. To `CC(C)n1ncnc1C(=O)N1CCc2[nH]cnc2[C@H]1c1nc2c(F)cccc2s1` [Example 2039, (S)-(4-(4-fluorobenzo[d]thiazol-2-yl)-6,7-dihydro-1H-imidazo[4,5-c]pyridin-5(4H)-yl)(1-isopropyl-1H-1,2,4-triazol-5-yl)methanone] belongs less than 500 nM.

(Values after patent publication US20250171438A1 (Agios Pharmaceuticals, Inc., priority 2022, published 2025).)
